Legend:
[1] = tested on: PCR of whole genomic mycobacterial DNA (Taq polymerase, primers Tb11 and Tb12); experiment: Reversible inhibition of PCR amplification by DNA binding ligand, product analyzed by gel electrophoresis; assay type: biochemical
Procedure: AMT is purchased from Sigma Chem. Co., St. Louis, Mo. A stock solution of 5 mg/mL AMT is prepared in de-ionized water. An amplification cocktail is prepared containing 200 picomoles of primers Tb11 and Tb12 (Devallois et al., J. Clin. Microbiol., 35:2669-73 (1997)), 1.25 units of Taq polymerase/100 μL, 200 μM dNTPs and 0.05 mg/mL AMT in a Tris-EDTA buffer, pH 7. A corresponding solution without AMT is prepared as a control.
Amplification is performed in Eppendorf tubes to which are added 0.5 μg of whole genomic mycobacterial DNA in 50 μl of buffer and either 1 μl or 10 μl of the amplification cocktail. Final volume is adjusted to 100 μl with the aqueous buffer solution (without AMT) so that the final concentrations of all PCR components, except AMT, is the same in all replicates. Controls received an amplification cocktail without AMT.
PCR amplification is performed for 45 cycles (92° C.-56° C.-72° C.; denaturation, annealing, extension) and the product analyzed by gel electrophoresis. […]

nucleic acids = details: Haq et al. 1997; cited from earlier work
[2] = tested on: transcription mediated amplification reaction; details: Della-Latta et al. 1999; cited from earlier work
ligase chain reaction = details: Notomi et al. 1998; cited from earlier work

Cc1oc2c(C)c3oc(=O)cc(C)c3cc2c1CN [AMT, 4′-aminomethyltrioxsalen]
amplification product in PCR ([1]; 0.5 μg/mL AMT, 45 cycles): detectable amplification product is produced | inhibition of the PCR ([1]; 5 μg/mL AMT, 45 cycles): complete inhibition | amount of amplification product ([1]; lower concentrations of AMT: 5 ng/mL and 0.5 ng/mL): continues to increase

CN1CCN(c2ccc3[nH]c(-c4ccc5[nH]c(-c6ccc(O)cc6)nc5c4)nc3c2)CC1 [Hoechst 33258]
affinity for nucleic acid (nucleic acids): ≤ 3.2e+08 M⁻¹

O=P(O)(O)O [phosphate ion]
inhibitory concentration for a transcription mediated reaction [2]: about 0.7 mM | concentration inhibitory for a ligase chain reaction (ligase chain reaction): above 1.2 mM
